Test results taken from patent US11596611B2, “Hepatitis B antiviral agents” (ENANTA PHARMACEUTICALS, INC., priority 2017, dated 2023).
Like-named read-outs stand apart in the source and are kept apart here.

System: HBV
Assay: HepAD38 antiviral assay: reduction of viral product accumulation (virion DNA by qPCR, HBsAg or HBeAg by ELISA)
Format: cell-based, hepatitis B virus
Conditions: HepAD38 cells, five days after compound addition, 50% reduction of viral product vs no drug controls, read-out: HepAD38 EC50
Procedure: Methods: HepAD38 cells are maintained as previously reported (Ladner et al, Antimicrob. Agents Chemother. 1997, […], 1715). Briefly, cells are passaged upon attaining confluency in DMEM/F12 media in the presence of 10% FBS, Penn/Strep, 250 μg/mL G418, and 1 ug/ml tetracycline. Novel compounds are screened by first washing cells three times with PBS to remove tetracycline, and plating in 96 well plates at 35,000 cells/well. Compounds dissolved in DMSO are then diluted 1:200 into wells containing cells. Five days after compound addition, material is harvested for analysis. For an extended 8 days analysis, cells are plated and treated as described above, but media and compound are refreshed on d2 and d5 post initial treatment.
On harvest day, virion DNA is obtained by lysing with Sidestep Lysis and Stabilization Buffer and then quantified via quantitative real time PCR. Commercially available ELISA kits are used to quantitate the viral proteins HBsAg (Alpco) or HbeAg (US Biological) by following the manufacturer's recommended protocol after diluting samples to match the linear range of their respective assays.

Row | Compound | EC50 (Hepatitis B virus, 120 h) | EC50
1 | Cc1ccc(NC(=O)c2ccc(Cl)c(S(=O)(=O)[C@H]3CC4CCC(C3)[C@@]4(C)O)c2)cc1F [Example 44] | > 200 nM | 
2 | C[C@]1(O)C2CCC1C[C@@H](S(=O)(=O)c1cc(C(=O)Nc3ccc(C#N)c(F)c3)ccc1Cl)C2 [Example 45] | > 200 nM | 
3 | C[C@]1(O)C2CCC1C[C@@H](S(=O)(=O)c1cc(C(=O)Nc3ccc(Cl)c(F)c3)ccc1Cl)C2 [Example 46] | > 200 nM | 
4 | Cc1ccc(C(=O)Nc2ccc(F)c(F)c2)cc1S(=O)(=O)[C@H]1CC2CCC(C1)[C@@]2(C)O [Example 47] | 100 to 200 nM | 
5 | COC(=O)N[C@@H](C)C(=O)NC[C@]1(O)C2CCC1C[C@@H](S(=O)(=O)c1cc(C(=O)Nc3cc(F)c(F)c(F)c3)ccc1Cl)C2 [Example 48] | < 104 nM | 
6 | COC(=O)N[C@@H](CO)C(=O)NC[C@]1(O)C2CCC1C[C@@H](S(=O)(=O)c1cc(C(=O)Nc3cc(F)c(F)c(F)c3)ccc1Cl)C2 [Example 49] | > 200 nM | 
7 | COC(=O)N[C@H](C(=O)NC[C@]1(O)C2CCC1C[C@@H](S(=O)(=O)c1cc(C(=O)Nc3cc(F)c(F)c(F)c3)ccc1Cl)C2)C(C)C [Example 50] | < 104 nM | 
8 | O=C(Nc1cc(F)c(F)c(F)c1)c1ccc(Cl)c(S(=O)(=O)[C@H]2CC3CCC(C2)[C@]3(O)[C@H](O)[C@@H](O)CO)c1 [Example 51] |  | < 104 nM
9 | CC(C)(O)C(O)CNC(=O)C[C@]1(O)C2CCC1C[C@@H](S(=O)(=O)c1cc(C(=O)Nc3cc(F)c(F)c(F)c3)ccc1Cl)C2 (some centres unmarked) [Example 56] | 100 to 200 nM | 
10 | CC(O)C(O)CNC(=O)C[C@]1(O)C2CCC1C[C@@H](S(=O)(=O)c1cc(C(=O)Nc3cc(F)c(F)c(F)c3)ccc1Cl)C2 (some centres unmarked) [Example 57] | 100 to 200 nM | 
11 | O=C(Nc1cc(F)c(F)c(F)c1)c1ccc(Cl)c(S(=O)(=O)[C@H]2CC3CCC(C2)[C@]3(O)COC[C@H](O)C(O)CO)c1 (some centres unmarked) [Example 60] | 100 to 200 nM | 
12 | O=C(Nc1cc(F)c(F)c(F)c1)c1ccc(Cl)c(S(=O)(=O)[C@H]2CC3CCC(C2)[C@]3(O)COCC(O)CO)c1 (some centres unmarked) [Example 63] | < 104 nM | 
13 | O=C(C[C@]1(O)C2CCC1C[C@@H](S(=O)(=O)c1cc(C(=O)Nc3cc(F)c(F)c(F)c3)ccc1Cl)C2)NCC(O)CO (some centres unmarked) [Example 65] | < 104 nM | 
14 | O=C(Nc1cc(F)c(F)c(F)c1)c1ccc(Cl)c(S(=O)(=O)[C@@H]2CC3CC[C@@H](C2)[C@@]3(O)CNC(=O)C2CC2(O)CO)c1 (some centres unmarked) [Example 67] | > 200 nM | 
15 | Cc1cc(Cl)c(S(=O)(=O)[C@H]2CC3CCC(C2)[C@@]3(C)O)cc1C(=O)Nc1ccc(F)c(F)c1 [Example 69] | < 104 nM | 
16 | COC(=O)N1CC(=O)C[C@H]1C(=O)NC[C@]1(O)C2CCC1C[C@@H](S(=O)(=O)c1cc(C(=O)Nc3cc(F)c(F)c(F)c3)ccc1Cl)C2 [Example 74] | 100 to 200 nM | 
17 | CC(C)(C)OC(=O)N1CC[C@@H](O)[C@H]1C(=O)NC[C@@]1(O)C2CC[C@H]1C[C@H](S(=O)(=O)c1cc(C(=O)Nc3cc(F)c(F)c(F)c3)ccc1Cl)C2 [Example 76] | < 104 nM | 
18 | CC(C)(C)OC(=O)N1CC[C@H](O)[C@H]1C(=O)NC[C@@]1(O)C2CC[C@H]1C[C@H](S(=O)(=O)c1cc(C(=O)Nc3cc(F)c(F)c(F)c3)ccc1Cl)C2 [Example 77] | > 200 nM | 
19 | COC(=O)N1CC[C@@H](O)[C@H]1C(=O)NC[C@]1(O)C2CCC1C[C@@H](S(=O)(=O)c1cc(C(=O)Nc3cc(F)c(F)c(F)c3)ccc1Cl)C2 [Example 78] | > 200 nM | 
20 | COC(=O)N1CC[C@H](O)[C@H]1C(=O)NC[C@@]1(O)C2CC[C@H]1C[C@H](S(=O)(=O)c1cc(C(=O)Nc3cc(F)c(F)c(F)c3)ccc1Cl)C2 [Example 79] | > 200 nM | 
21 | COC(=O)NCCC(=O)NC[C@@]1(O)C2CC[C@H]1C[C@H](S(=O)(=O)c1cc(C(=O)Nc3cc(F)c(F)c(F)c3)ccc1Cl)C2 [Example 80] | < 104 nM | 
22 | COC(=O)N[C@@H](CCC(N)=O)C(=O)NC[C@]1(O)C2CCC1C[C@@H](S(=O)(=O)c1cc(C(=O)Nc3cc(F)c(F)c(F)c3)ccc1Cl)C2 [Example 84] | > 200 nM | 
23 | O=C1N[C@H](C(=O)NC[C@]2(O)C3CCC2C[C@@H](S(=O)(=O)c2cc(C(=O)Nc4cc(F)c(F)c(F)c4)ccc2Cl)C3)CO1 [Example 85] | > 200 nM | 
24 | COC(=O)N[C@H](C)C(=O)NC[C@]1(O)C2CCC1C[C@@H](S(=O)(=O)c1cc(C(=O)Nc3cc(F)c(F)c(F)c3)ccc1Cl)C2 [Example 86] | < 104 nM | 
25 | O=C(Nc1cc(F)c(F)c(F)c1)c1ccc(Cl)c(S(=O)(=O)[C@H]2CC3CCC(C2)[C@]3(O)CNC(=O)C2CCOC2)c1 (some centres unmarked) [Example 87] | < 104 nM | 
26 | O=C(Nc1cc(F)c(F)c(F)c1)c1ccc(Cl)c(S(=O)(=O)[C@H]2CC3CCC(C2)[C@]3(O)CC(=O)N2CC3(COC3)C2)c1 [Example 94] | < 104 nM | 
